Tested on: DIG10.3
Experiment: Binding of tethered ligand to binding protein DIG10.3

binding to DIG10.3: binds weakly
SMILES: CC(=O)[C@H]1CC[C@H]2[C@@H]3CCC4=CC(=O)CC[C@]4(C)[C@H]3CC[C@]12C [Progesterone, progesterone]

Source: US9952208B2, “Means and methods for bioluminescence resonance energy transfer (BRET) analysis in a biological sample” (priority 2013, dated 2018)
